{
  "source": "paper PMC10307035",
  "about": "“Antiviral activity of singlet oxygen-photogenerating perylene compounds against SARS-CoV-2: Interaction with the viral envelope and photodynamic virion inactivation” (Virus Research, 2023)",
  "tested_on": "feline infectious peritonitis virus (FIPV)",
  "assay_type": "cell-based, feline coronavirus (FCoV)",
  "conditions": "0–10 µM",
  "data": [
    {"molecule": "CC(C)(C)C(=O)OCn1c(=O)c(C#Cc2ccc3c4cccc5cccc(c6cccc2c63)c54)cn(CC(=O)N(CCO)CCO)c1=O", "note": "[Compound 13]", "values": [
      {"measurement": "replication of FIPV in CRFK cells", "result": "potently suppressed the replication"}
    ]}
  ]
}
